Measurements from publication PMC8100298, “Histone deacetylase inhibitor resminostat in combination with sorafenib counteracts platelet-mediated pro-tumoral effects in hepatocellular carcinoma” (Scientific Reports, 2021).
Read-outs that look alike come from different tables or passages of the source.

Assays:
PLC/PRF/5 = assay: Proliferation assay; assay type: cell-based; details: for EC50: Homo sapiens
Text: (§1) The cell lines HepG2 (ACC180, RRID:CVCL_0027; DMSZ, Braunschweig Germany), SNU-475 (CRL-2236, Lot. 58483227, RRID:CVCL_0497; ATCC, Manassas, Virginia, US), SNU-387 (CRL-2237, Lot. 58483192, RRID:CVCL_0250; ATCC, Virginia, US), PLC/PRF/5 (300315, Lot. 812, RRID:CVCL_0485; CLS Cell Lines Service GmbH, Eppelheim, Germany) and HuH-7 (JCRB0403, Lot. 2272008, RRID:CVCL_0336; JCRB Cell Bank, Japan) were propagated according to the distributor’s guidelines. The authenticity of the cell lines was confirmed by short tandem repeat (STR) analysis (DSMZ, Braunschweig, Germany). Mycoplasma contamination was ruled out by PCR testing. For assays with platelet lysate (PL), FBS was substituted with 10% PLTMax Human Platelet Lysate (Cat. Nr. SCM141, Lot Number VP1602259; Millipore, Burlington, Massachusetts, US). The PL was supplemented with 20 U/ml Heparin (Heparin sodium salt from porcine intestinal mucosa, H4784-250MG; Sigma-Aldrich, Taufkirchen, Germany) to prevent coagulation.
(§2) Prior to the assay, the optimal seeding density was determined for each cell line to obtain an exponential growth during the experiment (2000 to 6000 cells per 96-well). Drug dilution series with 8 concentrations were prepared for EC50 determinations of single drugs. Three wells for each concentration were seeded (technical replicates). For drug combinations, dilution series of six concentrations for each drug alone or in combination at equal ratio were prepared. After 4 h of cell seeding, the drugs were added to the cells. Each 96-well plate contained a vehicle control (0.1% or 0.2% DMSO), a death control Ro 106-9920 (Tocris Cookson Ltd., Bristol, UK) a growth control (untreated cells compared to vehicle treated cells), and blank wells without cells. The proliferation assay was stopped after 4 days by crystal violet staining of the cells (0.5% in 20% methanol). Following extraction of the crystal violet with 8% acetic acid, the eluates were quantified photometrically at 570 nm and the reference wavelength 690 nm in an absorbance microplate reader (Tecan Sunrise; Tecan, Männedorf, Switzerland). Only readouts from 96-well plates with a Z-factor between 0.5 and 1.0 were used. Blank OD values were subtracted from the mean OD values. Nonlinear curve fitting and EC50 calculation was performed with Excel Solver.

SNU-475 = assay: Proliferation assay; assay type: cell-based; details: for EC50: Homo sapiens, read-out: EC50, anti-proliferative activity of kinase inhibitors
Text: as §1, §2

HepG2 = assay: Proliferation assay; assay type: cell-based; details: for EC50: Homo sapiens, 96 h, 4 days
Text: as §1, §2

HuH-7 = assay: Proliferation assay; assay type: cell-based; details: for EC50: Homo sapiens, 96 h, 4 days
Text: as §1, §2

SNU-387 = assay: Proliferation assay; assay type: cell-based; details: SNU-387 vs HepG2, PLC/PRF/5, HuH-7 (Fig. 1F)
Text: as §1, §2

[1] = system: Hep3B2.1-7 human hepatic carcinoma
Text: The orthotopic xenograft mouse model of Hep3B2.1–7 human hepatic carcinoma was previously established. Tumors were created by injection of 2.5 × 10^6 Hep3B2.1-7 cells (ATCC, RRID:CVCL_0326; Virginia, Manassas, USA) into the main lobe of the liver of anaesthetized female SCID mice (C.B-17-Igh-1bPrkdc(scid)). […] Treatments were continued for 21 days. Treatment of animals was ceased when the body weight dropped below 85% of that on entry of the study. Only mice culled at the termination date were used to determine the tumor weight. The experiment was conducted by vivoPharm pty Ltd (Bundoora, Australia) in accordance with the principles outlined in the “Australian Code of Practice for the Care and Use of Animals for Scientific Purposes”, 7th Edition, 2004 (National Health and Medical Research Council, Canberra, Australia). All procedures involving animals were reviewed and approved by the University of Adelaide Animal Ethics Committee. The study was carried out in compliance with the ARRIVE guidelines (http://www.nc3rs.org.uk/page.asp?id=1357). […]
invasion assay. The ODs of the invaded cells were normalized relative to ODs from tissue […]
Orthotopic xenograft mouse model
The orthotopic xenograft mouse model of Hep3B2.1-7 human hepatic carcinom a was previously established. The experiment was conducted by vivoPharm pty Ltd (Australia) in accordance with the principles outlined in the Australian Code of Practice for the Care and Use of Animals for Scientific Purposes, 7th Edition, 2004 (National Health and Medical Research Council). Procedures involving the care and use of animals in thi s study were reviewed and approved by the University of Adelaide Animal Ethics Committee. The study was carried out in compliance with the ARRIVE guidelines
(http://www.nc3rs.org.uk/page.asp?id=1357).
The animals were delivered to the test facility 1 1 days prior inoculation. On arrival, all animals received a detailed physical examination, including body weight measurement by the […]
technical staff. […] Each a nimal was identified by a transponder (Bar Code Data Systems Pty Ltd, Botany Bay, NSW, Australia) that could be scanned with a barcode reader (DataMars LabMax I). The transponder was implanted by subcutaneous injection between the shoulder blades while the mouse was under isoflurane-induced anaesthesia. The animals were housed in groups of six in micro-isolator cages (two cages per group). Each cage was clearly labelled with a cage card indicating study number, group, gender, and prescribed dose concentration and dose volume. The animals were kept in a controlled environment (targeted ranges: temperature 21 ± 3°C, humidity 30 -70%, 15 air changes per hour), with a light/dark cycle each of 12 hours, and under barrier (quarantine) conditions. Temperature and relative humidity were monitored continuously. All animals were subjected to the same environmental conditions. A standard certified commercial rodent diet (Rat and Mouse Cubes, Specialty Feeds Pty Ltd, Glen Forrest, WA, Australia) and tap water were provided to the animals ad libitum. Food supply was sterilized by autoclaving, and water […]
supply was sterilized by acidification with hydrochloric acid (pH 2.4-2.7) by Laboratory Animal Services, University of Adelaide (Adelaide, SA, Australia). Additional feed (a nimal seed, Magill Grain Store, Magill, SA, Australia), as well as wet standard feed was provided to all animals from Day 7 onwards, as a measure to minimize body w eight loss. The extent of adverse reaction was assessed during the study and mice were culled if severe adverse […]
The age range of the mice were 12-16 weeks at
Hep3B2.1-7 human hepatic carcinoma cells were sourced from the American Type Culture […]
Collection (ATCC; Virginia, USA).

[2] = system: PLC/PRF/5 and SNU-475 cells; assay: ELISA for growth factors PDGF-AA, TGF and VEGF; assay type: cell-based; details: tissue culture supernatants, with or without platelets (Fig. S4B)
Protocol: A. The growth factors PDGF-AA, TGFβ and VEGF were determined from tissue culture supernatants by ELISA. PLC/PRF/5 and SNU-475 cells were cultured with increasing […]
(1 picture or pasted object on this page, not shown here) […]
amounts of platelets. In parallel, platelets were cultured without cells to determine if the growth factors were platelet derived.
B. ELSIAs for PDGF-AA, TGFβ and VEGF were performed after drug treatment of PC/PRF/5 and SNU-475 cells. Cells were cultured as indicated with or without platelets and treated with resminostat, sorafenib, the drug combination or vehicle control 0.1% DMSO.
Table S1_ EC50 cell line screen
S1D. The cancer cell lines, their tissue origins and the respective EC50 values are shown.
Each cell line was seeded in duplicates.

[3] = PLC/PRF/5 (Fig. 6B), read-out: EC50, anti-proliferative activity of kinase inhibitors

| Compound | EC50 (PLC/PRF/5; [3]) [µM] | EC50 (SNU-475; SNU-475 (Fig. 6B)) [µM] | EC50, anti-proliferative activity of kinase inhibitors (SNU-475; SNU-475 (Fig. 6B)) | Ratio PL/FBS (HepG2; HepG2, ratio of PL/FBS EC50s) | EC50 (HepG2; HepG2, fetal bovine serum, read-out: EC50 in FBS) [µM] | EC50 (HepG2; HepG2, platelet lysate, absolute EC50, read-out: EC50 in PL, absolute EC50 (*)) [µM] | EC50 (HuH-7; HuH-7, fetal bovine serum, read-out: EC50 in FBS) [µM] | EC50 (HuH-7; HuH-7, platelet lysate, absolute EC50, read-out: EC50 in PL, absolute EC50 (*)) [µM] | Ratio PL/FBS (HuH-7; HuH-7, ratio of PL/FBS EC50s) | EC50 (PLC/PRF/5; 96 h, PLC/PRF/5, fetal bovine serum, 4 days, read-out: EC50 in FBS) [µM] | EC50 (PLC/PRF/5; 96 h, PLC/PRF/5, platelet lysate, 4 days, absolute EC50, read-out: EC50 in PL, absolute EC50 (*)) [µM] | effect of platelet factors on potency and efficacy (PLC/PRF/5; PLC/PRF/5, platelet lysate vs FBS dose-response curves (Fig. 2A)) | maximal inhibition (PLC/PRF/5; PLC/PRF/5, platelet lysate, at 25 µM) | Ratio PL/FBS (PLC/PRF/5; PLC/PRF/5, ratio of PL/FBS EC50s) | EC50 compared to the epithelial cell lines (SNU-387) | EC50 compared to the epithelial cell lines (SNU-475; SNU-475 vs HepG2, PLC/PRF/5, HuH-7 (Fig. 1F)) | Tumour weight, Mean ([1]; 40 mg/kg oral once daily, 21 days, SCID mice) [g] | tumor weight compared to the vehicle control ([1]; daily resminostat 15 and 40 mg/kg, sorafenib 40 mg/kg, or combination (Fig. 1B)) | growth factors released by platelets or secreted by HCC cells [2] |
| --- | --- | --- | --- | --- | --- | --- | --- | --- | --- | --- | --- | --- | --- | --- | --- | --- | --- | --- | --- |
| C[C@@H](Oc1cc(-c2cnn(C3CCNCC3)c2)cnc1N)c1c(Cl)ccc(F)c1Cl [crizotinib, Crizotinib] | ~5 | ~5 | – | – | – | – | – | – | – | – | – | – | – | – | – | – | – | – | – |
| COc1cc2nccc(Oc3ccc(NC(=O)NC4CC4)c(Cl)c3)c2cc1C(N)=O [lenvatinib, Lenvatinib] | ~17 | > 25 | could not be determined due to a lack of efficacy | – | – | – | – | – | – | – | – | – | – | – | – | – | – | – | – |
| CNC(=O)c1cc(Oc2ccc(NC(=O)Nc3ccc(Cl)c(C(F)(F)F)c3)cc2)ccn1 [sorafenib, Sorafenib] | – | – | – | 6.4 | 1.8 ± 0.4 | 11.5 ± 1.3 | 4.4 ± 0.9 | 14 ± 2.5 | 3.2 | 4.8 ± 0.6 | 22.1 ± 2.5 | reduced | not reached | 4.6 | about three-fold higher | about three-fold higher | 1.11 | significantly reduced tumor weight | not consistantly affected |
